Some targets named below: Carbonic anhydrase 2 (Homo sapiens, UniProt P00918); Carbonic anhydrase 1 (Homo sapiens, UniProt P00915); Carbonic anhydrase 9 (Homo sapiens, UniProt Q16790).
Test [1] addresses 72 kDa type IV collagenase (Homo sapiens, UniProt P08253).
Description: Inhibition of human recombinant MMP2 expressed in mouse myeloma cells
The target in test [2] is Matrix metalloproteinase-9 (Homo sapiens, UniProt P14780).
Description: Inhibition of human recombinant MMP9 expressed in mouse myeloma cells

Structures are written as SMILES.

Sequence of Carbonic anhydrase 1 (P00915 whole entry): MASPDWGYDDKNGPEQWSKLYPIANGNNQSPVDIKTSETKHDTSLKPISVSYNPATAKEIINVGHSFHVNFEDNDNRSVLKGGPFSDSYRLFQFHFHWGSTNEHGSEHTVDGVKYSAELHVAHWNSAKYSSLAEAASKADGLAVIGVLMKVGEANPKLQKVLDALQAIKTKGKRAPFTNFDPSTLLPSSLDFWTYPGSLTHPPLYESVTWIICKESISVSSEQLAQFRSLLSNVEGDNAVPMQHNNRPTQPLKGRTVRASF
Sequence of 72 kDa type IV collagenase (P08253 whole entry): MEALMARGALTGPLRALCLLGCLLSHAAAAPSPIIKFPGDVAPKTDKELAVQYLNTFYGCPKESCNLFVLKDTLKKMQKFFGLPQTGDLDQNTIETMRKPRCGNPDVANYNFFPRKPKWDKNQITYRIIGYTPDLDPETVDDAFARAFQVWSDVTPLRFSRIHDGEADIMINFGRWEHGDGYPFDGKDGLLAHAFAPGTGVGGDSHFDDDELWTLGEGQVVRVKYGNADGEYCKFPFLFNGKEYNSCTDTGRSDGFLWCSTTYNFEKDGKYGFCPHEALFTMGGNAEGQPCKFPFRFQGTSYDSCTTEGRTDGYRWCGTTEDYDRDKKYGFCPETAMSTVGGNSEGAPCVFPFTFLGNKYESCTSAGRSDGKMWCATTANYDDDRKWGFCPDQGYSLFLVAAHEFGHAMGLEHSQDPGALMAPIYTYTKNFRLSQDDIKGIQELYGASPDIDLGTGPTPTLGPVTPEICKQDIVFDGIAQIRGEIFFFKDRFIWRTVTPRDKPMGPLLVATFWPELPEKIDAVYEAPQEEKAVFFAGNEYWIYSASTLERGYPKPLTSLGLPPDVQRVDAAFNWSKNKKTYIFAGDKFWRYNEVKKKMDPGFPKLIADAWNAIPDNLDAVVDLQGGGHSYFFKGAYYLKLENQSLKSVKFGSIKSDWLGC
Sequence of Matrix metalloproteinase-9 (P14780 whole entry): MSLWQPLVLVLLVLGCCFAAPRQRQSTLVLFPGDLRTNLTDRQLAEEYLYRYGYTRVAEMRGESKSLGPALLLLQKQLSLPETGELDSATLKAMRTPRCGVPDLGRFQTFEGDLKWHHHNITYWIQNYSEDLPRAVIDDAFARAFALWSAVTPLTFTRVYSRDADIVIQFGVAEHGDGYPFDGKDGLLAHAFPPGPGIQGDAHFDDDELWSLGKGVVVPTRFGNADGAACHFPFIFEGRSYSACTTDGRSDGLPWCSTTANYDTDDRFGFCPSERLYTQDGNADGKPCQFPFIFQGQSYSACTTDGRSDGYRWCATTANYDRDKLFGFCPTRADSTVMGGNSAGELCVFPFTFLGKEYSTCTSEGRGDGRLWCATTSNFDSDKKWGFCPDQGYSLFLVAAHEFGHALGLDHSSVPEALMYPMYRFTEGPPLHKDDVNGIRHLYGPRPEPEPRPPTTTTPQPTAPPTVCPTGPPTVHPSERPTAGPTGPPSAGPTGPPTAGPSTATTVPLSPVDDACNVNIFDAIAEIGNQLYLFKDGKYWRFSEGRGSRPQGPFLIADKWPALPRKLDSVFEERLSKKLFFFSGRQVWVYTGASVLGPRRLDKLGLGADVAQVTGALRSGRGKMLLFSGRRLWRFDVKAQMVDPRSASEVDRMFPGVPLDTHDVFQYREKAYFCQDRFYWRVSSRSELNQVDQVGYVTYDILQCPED
Description for Carbonic anhydrase 1: Inhibition of human recombinant carbonic anhydrase 1 by CO2 hydration method
Description for Carbonic anhydrase 2: Inhibition of human recombinant carbonic anhydrase 2 by CO2 hydration method
Description for Carbonic anhydrase 9: Inhibition of human recombinant carbonic anhydrase 9 by CO2 hydration method

In the case of `O=C(CNOCc1ccccc1)NO`, the inhibitory constant (Ki) at Carbonic anhydrase 2 is 94 µM; on Carbonic anhydrase 1, 490 µM; at Carbonic anhydrase 9 it was 6.7 µM. The IC50 in test [1] was 94 µM; in test [2] it was 256 µM.

`CCC(C)ON(C(C(=O)NO)C(C)C)S(=O)(=O)c1ccc(OC)cc1` (stereo not drawn): the values for the Ki on Carbonic anhydrase 2, on Carbonic anhydrase 1 and on Carbonic anhydrase 9 were 9.6 µM, 9.7 µM and 9.2 µM, respectively. The IC50 in test [1] was found to be 0.73 µM; in test [2], 0.286 µM.

For `CCC(C)C(NOCc1ccccc1)C(=O)NO` (stereo not drawn), the inhibition constant Ki at Carbonic anhydrase 2 worked out at 267 µM; at Carbonic anhydrase 1, 435 µM; at Carbonic anhydrase 9, 7.1 µM. Also, the IC50 in test [1] is 151 µM; in test [2], 352 µM.

As for `O=C(CNOCc1ccc(Cl)cc1)NO`, the Ki at Carbonic anhydrase 2 worked out at 4.8 µM; at Carbonic anhydrase 1, 10 µM; at Carbonic anhydrase 9, 8.8 µM. In addition, the values for the IC50 in test [1] and in test [2] were 137 µM and 261 µM, respectively.

For the compound `CCON(CC(=O)NO)S(=O)(=O)c1ccc(OC)cc1`, the Ki at Carbonic anhydrase 2 was determined as 8.7 µM; on Carbonic anhydrase 1 it was 8.91 µM; on Carbonic anhydrase 9 it was 9 µM. Moreover, the IC50 amounted to 9.6 µM in test [1] and 2.2 µM in test [2].

For the compound `CCCCCCCCCCCCCCON(CC(=O)NO)S(=O)(=O)c1ccc(OC)cc1`, the Ki was found to be 0.097 µM at Carbonic anhydrase 2, 0.89 µM on Carbonic anhydrase 1 and 7.4 µM at Carbonic anhydrase 9. Further, the IC50 in test [1] is 30 µM; in test [2], 33 µM.

As for `COc1ccc(S(=O)(=O)N(Cc2cccnc2)[C@@H](C(=O)NO)C(C)C)cc1` [CGS-27023A], the Ki is 8.6 µM at Carbonic anhydrase 2, 281 µM at Carbonic anhydrase 1 and 7.8 µM at Carbonic anhydrase 9.

For `COc1ccc(S(=O)(=O)N(CC(=O)NO)OCc2ccccc2)cc1`, the Ki amounted to 0.096 µM on Carbonic anhydrase 2, 0.88 µM on Carbonic anhydrase 1 and 7.5 µM on Carbonic anhydrase 9. Also, the IC50 in test [1] was determined as 1.06 µM; in test [2], 0.87 µM.

For `COc1ccc(S(=O)(=O)N(CC(=O)NO)OCc2ccc(Cl)cc2)cc1`, the Ki was 4.2 µM at Carbonic anhydrase 2, 156 µM on Carbonic anhydrase 1 and 9.3 µM at Carbonic anhydrase 9. Further, the IC50 in test [1] came out at 1.5 µM; in test [2] it was 0.33 µM.

For the compound `COc1ccc(S(=O)(=O)N(OC(C)C)C(C(=O)NO)C(C)C)cc1` (stereo not drawn), the Ki on Carbonic anhydrase 2 was 0.094 µM; on Carbonic anhydrase 1, 9 µM; on Carbonic anhydrase 9 it was 9.3 µM. The figures for the concentration for half-maximal inhibition (IC50) in test [1] and in test [2] were 0.66 µM and 0.37 µM, respectively.

For the compound `COc1ccc(S(=O)(=O)N(CC(=O)NO)OCc2ccc(OCc3ccccc3)cc2)cc1`, the Ki at Carbonic anhydrase 2 is 0.095 µM; on Carbonic anhydrase 1, 5.9 µM; on Carbonic anhydrase 9, 8.7 µM. Moreover, the 50% inhibitory concentration (IC50) is 2.1 µM in test [1] and 1.83 µM in test [2].

On to `CC(NOCc1ccc(Cl)cc1)C(=O)NO` (stereo not drawn), for which the results for the Ki on Carbonic anhydrase 2, at Carbonic anhydrase 1 and on Carbonic anhydrase 9 were 4.7 µM, 9.8 µM and 9.2 µM, respectively. The results for the half-inhibitory concentration (IC50) in test [1] and in test [2] were 68 µM and 141 µM, respectively.

Regarding `CCCCC(NOCc1ccccc1)C(=O)NO` (stereo not drawn), the figures for the Ki on Carbonic anhydrase 2, on Carbonic anhydrase 1 and on Carbonic anhydrase 9 were 7.8 µM, 520 µM and 7.6 µM, respectively. In addition, the values for the IC50 in test [1] and in test [2] were 33.7 µM and 81.5 µM, respectively.

`COc1ccc(S(=O)(=O)N(CC(=O)NO)OC(C)C)cc1`: the figures for the Ki at Carbonic anhydrase 2, on Carbonic anhydrase 1 and at Carbonic anhydrase 9 were 0.091 µM, 4.1 µM and 9.5 µM, respectively. Besides, the results for the IC50 in test [1] and in test [2] were 4.9 µM and 3.4 µM, respectively.

Regarding `CCCCC(NOCc1ccc(Cl)cc1)C(=O)NO` (stereo not drawn), the Ki was found to be 6.1 µM at Carbonic anhydrase 2, 10.2 µM on Carbonic anhydrase 1 and 6.9 µM at Carbonic anhydrase 9. In addition, the IC50 is 81.8 µM in test [1] and 125 µM in test [2].

`COc1ccc(S(=O)(=O)N(CC(=O)NO)OC2C3CC4CC(C3)CC2C4)cc1` (stereo not drawn): the figures for the Ki at Carbonic anhydrase 2, on Carbonic anhydrase 1 and on Carbonic anhydrase 9 were 0.096 µM, 0.9 µM and 7.8 µM, respectively. The IC50 is 1.98 µM in test [1] and 2 µM in test [2].

What is called Ki is the dissociation constant of the complex between target and ligand, obtained from inhibition or displacement. Low values mean higher affinity, high ones lower affinity. Broadly, the IC50 is the concentration at which inhibition is half-maximal. Read a low IC50 as higher potency.

The values above are taken from ChEMBL document CHEMBL1142918, “Carbonic anhydrase and matrix metalloproteinase inhibitors. Inhibition of human tumor-associated isozymes IX and cytosolic isozyme I and II with sulfonylated hydroxamates” (Bioorg Med Chem, 2007).
